Source: patent US10966949B2, “Dietary supplementation to achieve oxy-redox homeostasis and epigenetic stability” (PARTHENOGEN SAGL, priority 2015, dated 2021)

Assays:
Agouti gene Avy = test: Agouti-yellow coat colour of offspring of supplemented VY dams (DNA methylation marking); type: in vivo, mouse; conditions: dams' diet fortified during gestation, human-equivalent dose, n=10; standard diet 66%
Excerpt: Mice embryos carrying the transgenic Agouti gene Avy will develop during gestation an Agouti-yellow color hair instead of the normal brown color proportionally to the lack of cytosine methylation at the relevant gene promoter. Mothers with a good DNA methylation function during early embryogenesis will generate offspring exerting less of the yellow color, thus the proportion of yellow color in the offspring can be used as a measure of efficiency of DNA methylation marking. Newborn mice are classified as Y0 to Y5 according to the amount of yellow phenotype, from Y0 for those without yellow hair up to Y5 in those fully colored in yellow. Dams of the inbred agouti mouse strain VY underwent diversified feeding during their gestation: their standard diet (n=10), or; their standard diet fortified with folic acid in amounts equivalent to a human dose of 400 μg daily (n=10), or; their standard diet fortified with the substances in amounts equivalent to a human dose of 1 tablet per day of the formulation of EXAMPLE 1 (n=10). The offspring was classified Y0 to Y5 according to the amount of yellow colour. In the standard diet group the rate of offspring abundant Agouti yellow color (Y3 to Y5) was 66%, which decreased to 45% in the offspring from folic acid supplementation and to 31% in the offspring supplemented by the composition according to the invention.

[1] = tested on: patients with type 2 diabetes mellitus; test: Adjuvant treatment to metformin in newly diagnosed type 2 diabetes mellitus; type: in vivo, human
Excerpt: Thirty male patients newly diagnosed as affected by type 2 diabetes mellitus and starting a treatment with metformin, 1-2 gr daily, where randomly assigned to a 3-month adjuvant treatment with the composition formulated according to EXAMPLE 1, 1 tablet per day, or no treatment.

[2] = tested on: plasma total antioxidant capacity (TAC); test: Plasma total antioxidant capacity (TAC) in healthy young males, cross-over; type: in vivo, human
Procedure: Ten young male subjects aged 18-25, following a healthy diet and virtually free from diseases assumed the composition formulated according to EXAMPLE 1, 1 tablet per day, for 1 week or 1000 mg daily of vitamin C by the oral route for 1 week according to a cross-over design with a 1 month wash-out interval between the treatments. The plasma total antioxidant capacity (TAC) was measured by means of a colorimetric assay kit before and after each of the treatment periods in all subjects. The average TAC values expressed as μmol trolox equivalents increased from 572±33 to 646±20 (increase=13%) following one week supplementation with the powerful direct antioxidant vitamin C whereas it remained stable (from 570±31 to 578±26, increase=1%) following one week supplementation with the composition according to the invention.

[3] = tested on: plasma total antioxidant capacity (TAC); test: Plasma total antioxidant capacity (TAC) in regular smokers, cross-over; type: in vivo, human; conditions: ten male smokers
Procedure: Ten male subjects regularly smoking 15 cigarettes per day or more assumed the composition formulated according to EXAMPLE 1, 1 tablet per day during 1 week or 1000 mg daily of vitamin C by the oral route for 1 week according to a cross-over design with a 1 month wash-out interval between the treatments. The plasma total antioxidant capacity (TAC) was measured by means of a colorimetric assay kit before and after each of the treatment periods in all subjects. The average TAC values expressed as μmol trolox equivalents increased from 472±36 to 522±32 (increase=11%) following one week supplementation with the powerful direct antioxidant vitamin C and from 468±31 to 565±36 (increase=21%) following one week supplementation with the composition according to the invention. Thus, the TAC increase provided by the aforementioned composition was of the same magnitude, if not higher, than that induced by full doses of a potent direct antioxidant.

[4] = all patients on metformin 1-2 gr daily, 3 months

Nc1nc2ncc(CNc3ccc(C(=O)N[C@@H](CCC(=O)O)C(=O)O)cc3)nc2c(=O)[nH]1 [folic acid]
rate of offspring with abundant Agouti yellow color (Y3 to Y5) (Agouti gene Avy): 45%

CN(C)C(=N)N=C(N)N [metformin]
plasma homocysteine at the end of treatment [1, 4]: 14.4 ± 2.1 µmol/L | serum HbA1C percentage at end [1, 4]: 9.2% | serum HbA1C percentage at baseline ([1]; all patients on metformin 1-2 gr daily, baseline): 10.4% | plasma homocysteine at baseline ([1]; male type 2 diabetes patients starting metformin 1-2 gr daily, baseline): 12.04 ± 1.6 µmol/L

O=C1O[C@H]([C@@H](O)CO)C(O)=C1O [vitamin C]
average plasma TAC after treatment ([2]; ten healthy young males aged 18-25, after one week supplementation): 646±20 μmol trolox equivalents | average plasma TAC before treatment ([2]; ten healthy young males aged 18-25, before one week supplementation): 572±33 μmol trolox equivalents | TAC increase ([2]; ten healthy young males, one week supplementation): 13% | average plasma TAC before treatment ([3]; 15 cigarettes per day or more, before one week supplementation): 472±36 μmol trolox equivalents | average plasma TAC after treatment ([3]; after one week supplementation): 522±32 μmol trolox equivalents | TAC increase ([3]; one week supplementation): 11%
